Assay results from patent US20190054054A1, “Methods reducing or preventing oxidation of high density lipoprotein (HDL)” (Amarin Pharmaceuticals Ireland Limited, priority 2017, published 2019).
“Also recorded” adds a separate entry of the source.

Assays:
[1] = patients; clinical studies by others; cited from earlier work
[2] = tested on: human HDL; test: Copper-induced oxidation of human HDL, TBARS/MDA (Example 14); type: biochemical
Description: LDL and sdLDL subfractions (0.6 mL each) were incubated with either 10 μL vehicle (ethanol) or 10 μL drug stock solution for 30 min to 1 hr at 37° C. Oxidation was initiated by the addition of 10 μM CuSO4. After 2 hr, 100 μL aliquots were removed from each subfraction and combined with 1.0 mL thiobarbituric acid (0.5%), 10 μL trichloroacetic acid (5%), 10 μL BHT (5 mg/mL in methanol), and 10 μL EDTA (5 mM). Sample aliquots were incubated at 100° C. for 20 min and then assayed for the formation of thiobarbituric acid-reactive substances (TBARS), which have a molar absorptivity (c) value of 1.56×10^5 M^−1 cm^−1 at 532 nm and are derived principally from the reaction of thiobarbituric acid with malondialdehyde (MDA), a reactive aldehyde produced by LDL oxidation. Sample TBARS concentrations were determined spectrophotometrically by measuring sample absorbances against a standard curve derived from the hydrolysis of 1,1,3,3-tetramethoxypropane.
A study was performed to test whether EPA, DHA or EPA/DHA have antioxidant effects on high density lipoprotein. HDL was isolated from human plasma by iodixanol gradient ultracentrifugation and adjusted to a final apolipoprotein (apoA1) concentration of 10 mg/mL. Isolated HDL was separated into test samples of 200 μg/mL […] (based on ApoA1), and incubated at 37° C. in the absence (vehicle) or presence of EPA and/or DHA; 5.0 or […] each. Samples were then subjected to copper-induced oxidation (10 μM CuSO4) and, at different time points up to 14 hours, aliquots were removed from each sample and formation of TBARS was determined as explained above in Example 6.

[3] = tested on: sdLDL isolated from human plasma; test: Copper-induced sdLDL oxidation for 1 hour (Example 12); type: biochemical; conditions: 10.0 μM; sdLDL 200 μg/mL; copper-induced oxidation 1 hour
[4] = Cholesterol domain formation by small angle x-ray diffraction (Example 3); conditions: PUFA-enriched model membranes, after autoxidation
Description: Cholesterol domain peak intensity was calculated from multiple small angle x-ray diffraction measurements, which are directly proportional to domain levels. […] EPA-treated membranes reduced LOOH levels by greater than 90% (728±30 μM) compared to untreated controls (p<0.001).

[5] = Lipid hydroperoxide (LOOH) formation in cholesterol-enriched model membranes under autoxidation (Example 3); type: biochemical; conditions: EPA to lipids 1:30, C/P mole ratio 0.6:1
Description: An experiment was conducted to test EPA in model membranes enriched with PUFAs and cholesterol at levels that reproduce disease or high CV-risk conditions (i.e., hypercholesterolemia). […] Levels of lipid hydroperoxides were also measured in cholesterol-enriched membrane prepared in the absence of EPA as a control. […] CHOD-iodide color reagent (stock) was prepared according to a procedure modified from El-Saadani et […], Goher […], Jurgens G. A spectrophotometric assay for lipid peroxides in serum lipoproteins using commercially available reagent. J. Lipid. […] Membrane samples consisting of DLPC±cholesterol were prepared as follows. […] To ensure spectrophotometric readings within the optimum absorbance range, sample volumes taken for measurement of lipid peroxide formation were adjusted for length of peroxidation and range between 100 and 10 μL. […] Absorbances were measured against a CHOD blank at 365 nm using a Beckman DU-640 spectrophotometer. The CHOD colorimetric assay is based on the oxidation of iodide (I^-) by lipid hydroperoxides (LOOH) and proceeds according to the following reaction scheme: […]3^- The quantity of triiodide anion (I3^-) liberated in this reaction is directly proportional to the amount of lipid hydroperoxides present in the membrane sample.

[6] = 5 μM (combination: 5 μM each), 6 h

CC/C=C\C/C=C\C/C=C\C/C=C\C/C=C\CCCC(=O)O [EPA, cis-5,8,11,14,17-eicosapentaenoic acid]
triglycerides and oxidized LDL, Lp-PLA2, hsCRP as compared to placebo [1]: significant reductions in levels of oxidized LDL, Lp-PLA2, and hsCRP; also recorded: significant reductions in triglycerides along with reduced levels of markers of inflammation | MDA formation [2, 6]: 1.03 ± 0.10 µM | inhibition of HDL oxidation (antioxidant activity) [2, 6]: 81% | MDA formation ([2]; 10 μM, 1.0 hr, 10 μM CuSO4): 0.384 ± 0.097 µM | inhibition of HDL oxidation ([2]; 10 μM, 1.0 hr, 10 μM CuSO4): 92% | MDA formation ([2]; 10 μM, 4 h): 0.622 ± 0.066 µM | inhibition of HDL oxidation ([2]; 10 μM, 4 h): 89% | MDA formation ([2]; 10 μM, 14 h): 2.01 ± 0.10 µM | inhibition of HDL oxidation vs. vehicle ([2]; 10 μM, 14 h): 64% | reduction of sdLDL oxidation compared to vehicle treatment alone [3]: > 90% | cholesterol crystalline domain formation [4]: inhibits cholesterol crystalline domain formation | LOOH level ([5]; after autoxidation 72 hours): 728 ± 30 µM | reduction of LOOH levels compared to untreated controls ([5]; autoxidation 37° C., 72 hours): greater than 90%
